Measurements as given in PMC11742280, “A phase I study of MLN4924 and belinostat in relapsed/refractory acute myeloid leukemia or myelodysplastic syndrome” (Cancer Chemotherapy and Pharmacology, 2025).
Read-outs that look alike come from different tables or passages of the source.

Key:
[1] = Plasma pharmacokinetics of pevonedistat (LC/MS/MS, noncompartmental analysis); type: in vivo, human; settings: for Cmax: read-out: preEOI Cmax (peak plasma concentration); for clearance: read-out: Cl (systemic clearance) (converted)
Protocol: Plasma was stored at − 80 °C until analysis.
Pharmacokinetic parameters were summarized using descriptive statistics.

[2] = test system: AML; design: method as in PMID 25733005; settings: cited from earlier work
[3] = test system: high-risk MDS; design: method as in PMID 35728048; settings: pevonedistat 20 mg/m^2 D1,3,5 in combination with azacitidine; subset with high-risk MDS, post-hoc analysis, non-statistically significant improvement; cited from earlier work
[4] = test system: xenograft models of solid tumors, lymphoma, and AML; design: method as in PMID 20203261, PMID 20525923, PMID 23633453, PMID 22562464; settings: cited from earlier work
[5] = design: method as in PMID 31097586, PMID 33441097; settings: e.g. value, compared with clinical Cmax; cited from earlier work
[6] = cycle 1 day 1, dose level 1, pevonedistat 20 mg/m^2 IV (belinostat 800 mg/m^2), n=2, actual values
[7] = human, plasma, iv, 37 mg/m2, cycle 1 day 1, pevonedistat 37 mg/m^2 IV, all 37 mg/m^2 patients (dose levels 3-4), mean±SD, n=6
[8] = human, plasma, iv, cycle 1 day 1, dose level 1, pevonedistat 20 mg/m^2 IV (belinostat 800 mg/m^2), n=2, actual values
[9] = human, plasma, iv, cycle 1 day 1, dose level 2, pevonedistat 25 mg/m^2 IV (belinostat 800 mg/m^2), mean±SD, n=3
[10] = human, plasma, iv, cycle 1 day 1, dose level 3, pevonedistat 37 mg/m^2 IV (belinostat 800 mg/m^2), mean±SD, n=3
[11] = human, plasma, iv, cycle 1 day 1, dose level 4, pevonedistat 37 mg/m^2 IV (belinostat 1000 mg/m^2), mean±SD, n=3

Compound: NS(=O)(=O)OC[C@@H]1C[C@@H](n2ccc3c(N[C@H]4CCc5ccccc54)ncnc32)C[C@@H]1O [Pevonedistat]
- Pevonedistat AUCINF by BSA-based dose ([1]; 37 mg/m^2 compared with 20 or 25 mg/m^2, p = 0.02, Kruskal–Wallis): significantly higher
- AUCINF [1, 6]: 2.85 µM·h
- Cl (systemic clearance) [1, 6]: 28.5 L/h
- T1/2 [1, 6]: 6.12 h
- Cmax [1, 6]: 311 nM
- Cl (systemic clearance) ([1]; cycle 1 day 1, dose level 3, pevonedistat 37 mg/m^2 IV (belinostat 800 mg/m^2), mean±SD, n=3): 34.9 ± 2.9 (3) L/hr
- Cl (systemic clearance) ([1]; cycle 1 day 1, dose level 4, pevonedistat 37 mg/m^2 IV (belinostat 1000 mg/m^2), mean±SD, n=3): 35.5 ± 8.3 (3) L/hr
- Cl (systemic clearance) ([1]; cycle 1 day 1, pevonedistat 37 mg/m^2 IV, all 37 mg/m^2 patients (dose levels 3-4), mean±SD, n=6): 35.2 ± 5.6 (6) L/hr
- Pharmacokinetic parameters compared between dose levels ([1]; dose levels 1-4, Kruskal–Wallis): not different by dose level
- AUC(0-inf) [1, 7]: 4.78 ± 0.958 µM·h
- half-life [1, 7]: 5.79 ± 0.99 h
- Cmax [1, 7]: 869 ± 290 nM
- Tmax ([1]; human, plasma, iv, 37 mg/m2, cycle 1 day 1, pevonedistat 37 mg/m^2 IV, all 37 mg/m^2 patients (dose levels 3-4), median (range; n)): 0.9 h
- AUC(0-inf) [1, 8]: 2.28 µM·h
- Tmax [1, 8]: 0.4 h
- half-life [1, 8]: 5.89 h
- clearance [1, 8]: 627 mL/min
- Cmax [1, 8]: 278 nM
- AUC(0-inf) [1, 9]: 2.95 ± 0.666 µM·h
- half-life [1, 9]: 6.52 ± 1.38 h
- clearance [1, 9]: 625 mL/min
- Cmax [1, 9]: 372 ± 93.2 nM
- Tmax ([1]; human, plasma, iv, cycle 1 day 1, dose level 2, pevonedistat 25 mg/m^2 IV (belinostat 800 mg/m^2), median (range; n)): 0.6 h
- AUC(0-inf) [1, 10]: 4.95 ± 0.426 µM·h
- half-life [1, 10]: 5.97 ± 0.34 h
- Cmax [1, 10]: 897 ± 26 nM
- Tmax ([1]; human, plasma, iv, cycle 1 day 1, dose level 3, pevonedistat 37 mg/m^2 IV (belinostat 800 mg/m^2), median (range; n)): 0.9 h
- AUC(0-inf) [1, 11]: 4.6 ± 1.42 µM·h
- half-life [1, 11]: 5.61 ± 1.5 h
- Cmax [1, 11]: 841 ± 455 nM
- Tmax ([1]; human, plasma, iv, cycle 1 day 1, dose level 4, pevonedistat 37 mg/m^2 IV (belinostat 1000 mg/m^2), median (range; n)): 1 h
- Complete remission (CR) + partial remission (PR) ([2]; single agent in AML): 17%
- Maximum Tolerated Dose ([2]; single agent, D1,3,5 dosing schedule in a 21-day cycle): 59 mg/m^2
- Survival [3]: 23.8 mos
- Effect on tumor growth [4]: inhibition of tumor growth
- Concentrations shown to exert activity in preclinical studies [5]: 100 to 200 nM
